pEC50: −log10 of the molar value.
Molecular target: T1, recombinant human mGluR4a receptors (Homo sapiens, UniProt Q14833)
T1 construct: expressed in transfected cells
Test: Fluorescent cell based Ca2+ mobilization assay (FLIPR) on HEK-293 cells expressing human mGluR4
Settings: positive allosteric modulation in presence of EC25 glutamate; HEK-293 hmGluR4; mean of at least three independent experiments in duplicate; read-out: Ca^2+ Flux (mean EC50)
Excerpt: mGluR4 Assay on HEK-Expressing Human mGluR4
The compounds of the present invention are positive allosteric modulators of mGluR4 receptor. Their activity was examined on recombinant human mGluR4a receptors by detecting changes in intracellular Ca^2+concentration, using the fluorescent Ca^2+-sensitive dye Fluo4-(AM) and a Fluorometric Imaging Plate Reader (FLIPR, Molecular Devices, Sunnyvale, Calif.).
The cDNA encoding the human metabotropic glutamate receptor (hmGluR4), (accession number NM_000841.1, NCBI Nucleotide database browser), was subcloned into an expression vector containing also the hygromycin resistance gene. In parallel, the cDNA encoding a G protein allowing redirection of the activation signal to intracellular calcium flux was subcloned into a different expression vector containing also the puromycin resistance gene. Transfection of both these vectors into HEK293 cells with PolyFect reagent (Qiagen) according to supplier's protocol, and hygromycin and puromycin treatment allowed selection of antibiotic resistant cells which had integrated stably one or more copies of the plasmids. Positive cellular clones expressing hmGluR4 were identified in a functional assay measuring changes in calcium fluxes in response to glutamate or selective known mGluR4 orthosteric agonists and antagonists.
HEK-293 cells expressing hmGluR4 were maintained in media containing DMEM, dialyzed Fetal Calf Serum (10%), Glutamax™ (2 mM), Penicillin (100 units/mL), Streptomycin (100 μg/mL), Geneticin (100 μg/mL) and Hygromycin-B (40 μg/mL) and puromycin (1 μg/mL) at 37° C./5% CO2.
Human mGluR4 HEK-293 cells were plated out 24 hours prior to FLIPR^384 assay in black-walled, clear-bottomed, poly-L-ornithine-coated 384-well plates at a density of 25,000 cells/well in a glutamine/glutamate free DMEM medium containing foetal bovine serum (10%), penicillin (100 units/mL) and streptomycin (100 μg/mL) at 37° C./5% CO2.
On the day of the assay, the medium was aspirated and the cells were loaded with a 3 μM solution of Fluo4-AM (LuBioScience, Lucerne, Switzerland) in 0.03% pluronic acid. After 1 hour at 37° C./5% CO2, the non incorporated dye was removed by washing cell plate with the assay buffer and the cells were left in the dark at room temperature for […] before testing. All assays were performed in a pH=7.4 buffered-solution containing 20 mM HEPES, 143 mM NaCl, 6 mM KCl, 1 mM MgSO4, 1 mM CaCl2, 0.125 mM sulfapyrazone and 0.1% glucose.
After 10 s of basal fluorescence recording, various concentrations of the compounds of the invention were added to the cells. Changes in fluorescence levels were first monitored for 180 s in order to detect any agonist activity of the compounds. Then the cells were stimulated by an EC25 glutamate concentration for an additional 110 s in order to measure enhancing activities of the compounds of the invention. EC25 glutamate concentration is the concentration giving 25% of the maximal glutamate response.
The concentration-response curves of representative compounds of the present invention were generated using the Prism GraphPad software (Graph Pad Inc, San Diego, USA). The curves were fitted to a four-parameter logistic equation:
(Y=Bottom+(Top−Bottom)/(1+10̂((LogEC50−X)*Hill Slope)
allowing the determination of EC50 values.
The Table 3 below represents the mean EC50 obtained from at least three independent experiments of selected molecules performed in duplicate.

T1 sequence (Q14833 33-912): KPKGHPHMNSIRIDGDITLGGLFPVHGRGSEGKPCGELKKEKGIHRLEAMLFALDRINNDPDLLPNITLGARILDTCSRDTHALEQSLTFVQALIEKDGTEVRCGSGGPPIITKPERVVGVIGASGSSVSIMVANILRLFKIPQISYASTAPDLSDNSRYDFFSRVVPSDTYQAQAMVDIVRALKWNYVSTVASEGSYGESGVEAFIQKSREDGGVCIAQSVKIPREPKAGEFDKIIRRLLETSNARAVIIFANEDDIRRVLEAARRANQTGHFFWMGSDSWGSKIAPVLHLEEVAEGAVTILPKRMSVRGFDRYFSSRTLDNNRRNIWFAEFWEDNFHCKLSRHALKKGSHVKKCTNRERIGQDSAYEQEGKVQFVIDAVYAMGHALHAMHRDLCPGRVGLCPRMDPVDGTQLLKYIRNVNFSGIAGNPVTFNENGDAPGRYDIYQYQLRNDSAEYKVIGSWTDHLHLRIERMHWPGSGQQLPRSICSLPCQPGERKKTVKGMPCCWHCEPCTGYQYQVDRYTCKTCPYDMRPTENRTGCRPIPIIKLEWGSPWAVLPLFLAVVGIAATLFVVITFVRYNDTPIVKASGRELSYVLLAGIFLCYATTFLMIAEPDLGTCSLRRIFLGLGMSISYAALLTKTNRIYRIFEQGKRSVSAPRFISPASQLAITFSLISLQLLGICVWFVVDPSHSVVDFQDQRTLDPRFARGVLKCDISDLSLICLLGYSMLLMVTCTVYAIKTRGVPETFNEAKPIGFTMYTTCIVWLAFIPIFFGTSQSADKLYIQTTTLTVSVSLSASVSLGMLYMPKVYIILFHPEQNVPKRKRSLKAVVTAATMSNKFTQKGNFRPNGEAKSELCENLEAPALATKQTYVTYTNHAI

Row | Compound | pEC50
1 | Cc1cc2[nH]ncc2c2nc(Nc3ccccn3)sc12 [Compound 1-1, (4-Methyl-6H-3-thia-1,6,7-triaza-as-indacen-2-yl)-pyridin-2-yl-amine] | 5.00 to 6.00
2 | CCCC1Cc2sc(Nc3nccc(C)n3)nc2-c2cn[nH]c21 (centres unmarked) [Compound 1-5, (4-Methyl-pyrimidin-2-yl)-(5-propyl-5,6-dihydro-4H-3-thia-1,6,7-triaza-as-indacen-2-yl)-amine] | 6.00 to 7.00
3 | Cc1ccnc(Nc2nc3c(s2)C(C)(C)OCc2n[nH]cc2-3)n1 [Compound 1-4, (4,4-Dimethyl-6,8-dihydro-4H-5-oxa-3-thia-1,7,8-triaza-cyclopenta[e]azulen-2-yl)-(4-methyl-pyrimidin-2-yl)-amine] | 6.00 to 7.00
4 | Cc1ccnc(Nc2nc3c(s2)C(C)(C)OC(C)c2n[nH]cc2-3)n1 (centres unmarked) [Compound 1-2, (4-Methyl-pyrimidin-2-yl)-(4,4,6-trimethyl-6,8-dihydro-4H-5-oxa-3-thia-1,7,8-triaza-cyclopenta[e]azulen-2-yl)-amine] | 5.00 to 6.00
5 | Cc1ccnc(Nc2nc3c(s2)CCC(O)c2[nH]ncc2-3)n1 (centres unmarked) [Compound 1-3, 2-(4-Methyl-pyrimidin-2-ylamino)-4,5,6,7-tetrahydro-3-thia-1,7,8-triaza-cyclopenta[e]azulen-6-ol] | 6.00 to 7.00
6 | Cc1ccnc(Nc2nc3c(s2)CCCCc2[nH]ncc2-3)n1 [Compound 1-7, (4-Methyl-pyrimidin-2-yl)-(5,6,7,8-tetrahydro-4H-3-thia-1,8,9-triaza-dicyclopenta[a,c]cycloocten-2-yl)-amine] | 6.00 to 7.00
7 | COC1Cc2n[nH]cc2-c2nc(Nc3nccc(C)n3)sc2C1 (centres unmarked) [Compound 1-15, (5-Methoxy-4,5,6,8-tetrahydro-3-thia-1,7,8-triaza-cyclopenta[e]azulen-2-yl)-(4-methyl-pyrimidin-2-yl)-amine] | 6.00 to 7.00
8 | Cc1nc(Nc2nc3c(s2)COC(C(C)C)c2[nH]ncc2-3)ncc1F (centres unmarked) [Compound 1-29, (5-Fluoro-4-methyl-pyrimidin-2-yl)-(6-isopropyl-6,7-dihydro-4H-5-oxa-3-thia-1,7,8-triaza-cyclopenta[e]azulen-2-yl)-amine] | 6.00 to 7.00
9 | (6-Isopropyl-6,7-dihydro-4H-5-oxa-3-thia-1,7,8-triaza-cyclopenta[e]azulen-2-yl)-(5-methyl-[1,2,4]thiadiazol-3-yl)-amine [Compound 1-25] | 6.00 to 7.00
10 | Dimethyl-carbamic acid 2-(4-methyl-pyrimidin-2-ylamino)-4,5,6,6a,7,8-hexahydro-3-thia-1,7,8-triaza-cyclopenta[e]azulen-5-yl ester [Compound 1-6] | 6.00 to 7.00
11 | Cc1nc(Nc2nc3c(s2)C(=O)CCc2n[nH]cc2-3)ncc1F [Compound 1-30, 2-(5-Fluoro-4-methyl-pyrimidin-2-ylamino)-6,8-dihydro-5H-3-thia-1,7,8-triaza-cyclopenta[e]azulen-4-one] | 5.00 to 6.00
12 | Cc1ccnc(Nc2nc3c(s2)CCC(C(F)(F)F)c2[nH]ncc2-3)n1 (centres unmarked) [Compound 1-27, (4-Methyl-pyrimidin-2-yl)-(6-trifluoromethyl-4,5,6,7-tetrahydro-3-thia-1,7,8-triaza-cyclopenta[e]azulen-2-yl)-amine] | 6.00 to 7.00

More lines, now with the values ahead:

Row | pEC50 | Compound
13 | 6.00 to 7.00 | Cc1ccnc(Nc2nc3c(s2)CC(C)Cc2n[nH]cc2-3)n1 (centres unmarked) [Compound 1-11, (4-Methyl-pyrimidin-2-yl)-(5-methyl-4,5,6,8-tetrahydro-3-thia-1,7,8-triaza-cyclopenta[e]azulen-2-yl)-amine]
14 | > 7.00 | Cc1ccnc(Nc2nc3c(s2)CCC(C)c2n[nH]cc2-3)n1 (centres unmarked) [Compound 1-12, (4-Methyl-pyrimidin-2-yl)-(6-methyl-4,5,6,8-tetrahydro-3-thia-1,7,8-triaza-cyclopenta[e]azulen-2-yl)-amine]
15 | > 7.00 | CC(C)C1OCc2sc(Nc3ncc(F)cn3)nc2-c2cn[nH]c21 (centres unmarked) [Compound 1-28, (5-Fluoro-pyrimidin-2-yl)-(6-isopropyl-6,7-dihydro-4H-5-oxa-3-thia-1,7,8-triaza-cyclopenta[e]azulen-2-yl)-amine]
16 | > 7.00 | CC1OCc2sc(Nc3cccc(F)n3)nc2-c2c[nH]nc21 (centres unmarked) [Compound 1-23, (6-Fluoro-pyridin-2-yl)-(6-methyl-6,8-dihydro-4H-5-oxa-3-thia-1,7,8-triaza-cyclopenta[e]azulen-2-yl)-amine]
17 | > 7.00 | Cc1ccnc(Nc2nc3c(s2)COC(C(C)C)c2n[nH]cc2-3)n1 (centres unmarked) [Compound 1-16, (6-Isopropyl-6,8-dihydro-4H-5-oxa-3-thia-1,7,8-triaza-cyclopenta[e]azulen-2-yl)-(4-methyl-pyrimidin-2-yl)-amine]
18 | 6.00 to 7.00 | CC(C)C1OCc2sc(Nc3cccc(F)n3)nc2-c2cn[nH]c21 (centres unmarked) [Compound 1-26, (6-Fluoro-pyridin-2-yl)-(6-isopropyl-6,7-dihydro-4H-5-oxa-3-thia-1,7,8-triaza-cyclopenta[e]azulen-2-yl)-amine]
19 | > 7.00 | CCC1OCc2sc(Nc3nsc(C)n3)nc2-c2c[nH]nc21 (centres unmarked) [Compound 1-20, (6-Ethyl-6,8-dihydro-4H-5-oxa-3-thia-1,7,8-triaza-cyclopenta[e]azulen-2-yl)-(5-methyl-[1,2,4]thiadiazol-3-yl)-amine]
20 | > 7.00 | COc1ccnc(Nc2nc3c(s2)COC(C)c2[nH]ncc2-3)n1 (centres unmarked) [Compound 1-14, (4-Methoxy-pyrimidin-2-yl)-(6-methyl-6,7-dihydro-4H-5-oxa-3-thia-1,7,8-triaza-cyclopenta[e]azulen-2-yl)-amine]
21 | > 7.00 | Cc1ccnc(Nc2nc3c(s2)CC(F)(F)Cc2n[nH]cc2-3)n1 [Compound 1-18, (5,5-Difluoro-4,5,6,8-tetrahydro-3-thia-1,7,8-triaza-cyclopenta[e]azulen-2-yl)-(4-methyl-pyrimidin-2-yl)-amine]
22 | > 7.00 | CCC1OCc2sc(Nc3ncc(F)c(C)n3)nc2-c2cn[nH]c21 (centres unmarked) [Compound 1-21, (6-Ethyl-6,7-dihydro-4H-5-oxa-3-thia-1,7,8-triaza-cyclopenta[e]azulen-2-yl)-(5-fluoro-4-methyl-pyrimidin-2-yl)-amine]
23 | > 7.00 | Cc1ccnc(Nc2nc3c(s2)COC(c2ccccn2)c2[nH]ncc2-3)n1 (centres unmarked) [Compound 1-31, (4-Methyl-pyrimidin-2-yl)-(6-pyridin-2-yl-6,7-dihydro-4H-5-oxa-3-thia-1,7,8-triaza-cyclopenta[e]azulen-2-yl)-amine]
24 | > 7.00 | Cc1ccnc(Nc2nc3c(s2)COC(C)(C)c2n[nH]cc2-3)n1 [Compound 1-10, (6,6-Dimethyl-6,8-dihydro-4H-5-oxa-3-thia-1,7,8-triaza-cyclopenta[e]azulen-2-yl)-(4-methylpyrimidin-2-yl)-amine]
25 | > 7.00 | CCC1OCc2sc(Nc3nccc(C)n3)nc2-c2c[nH]nc21 (centres unmarked) [Compound 1-8, (6-Ethyl-6,8-dihydro-4H-5-oxa-3-thia-1,7,8-triaza-cyclopenta[e]azulen-2-yl)-(4-methyl-pyrimidin-2-yl)-amine]
26 | > 7.00 | CCC1OCc2sc(Nc3nccc(OC)n3)nc2-c2cn[nH]c21 (centres unmarked) [Compound 1-22, (6-Ethyl-6,7-dihydro-4H-5-oxa-3-thia-1,7,8-triaza-cyclopenta[e]azulen-2-yl)-(4-methoxy-pyrimidin-2-yl)-amine]
27 | > 7.00 | COC1CCc2sc(Nc3nccc(C)n3)nc2-c2cn[nH]c21 (centres unmarked) [Compound 1-24, (6-Methoxy-4,5,6,7-tetrahydro-3-thia-1,7,8-triaza-cyclopenta[e]azulen-2-yl)-(4-methyl-pyrimidin-2-yl)-amine]
28 | > 7.00 | Cc1ccnc(Nc2nc3c(s2)CCOc2n[nH]cc2-3)n1 [Compound 1-17, (4,8-Dihydro-5H-6-oxa-3-thia-1,7,8-triaza-cyclopenta[e]azulen-2-yl)-(4-methyl-pyrimidin-2-yl)-amine]
29 | > 7.00 | Cc1ccnc(Nc2nc3c(s2)COC(C(F)(F)F)c2n[nH]cc2-3)n1 (centres unmarked) [Compound 1-13, (4-Methyl-pyrimidin-2-yl)-(6-trifluoromethyl-6,8-dihydro-4H-5-oxa-3-thia-1,7,8-triaza-cyclopenta[e]azulen-2-yl)-amine]
